Calls of active or inactive are those of the source. The rule behind the calls is not given here.
Experiments:
HeLa [1] = assay: Induction of apoptosis in human HeLa cells assessed as increase in cleaved caspase 3 protein expression after 24 hrs by Western blot analysis; assay type: functional, cell-based; conditions: dose 10-1000 nM
A549 = assay: Antiproliferative activity against human A549 assessed as reduction in cell viability measured after 48 hrs by MTT assay; assay type: functional, cell-based; conditions: A549, 48 h
HeLa [2] = assay: Induction of apoptosis in human HeLa cells assessed as increase in bad protein expression after 24 hrs by Western blot analysis; assay type: functional, cell-based; conditions: dose 10-1000 nM
HeLa [3] = assay: Antiproliferative activity against human HeLa assessed as reduction in cell viability measured after 48 hrs by MTT assay; assay type: functional, cell-based
Tubulin = assay: Inhibition of tubulin polymerization (unknown origin) assessed as fluorescence intensity measured for 90 mins by DAPI based microplate reader; assay type: functional, Homo sapiens
HeLa [4] = assay: Induction of cell cycle arrest in human HeLa cells assessed as accumulation of cells at G2/M phase at 5 nM incubated for 24 hrs by propidium iodide staining based flow cytometry analysis; assay type: functional
Tubulin beta = assay: Inhibition of beta-tubulin polymerization in human HeLa cells assessed as inhibition of EBI-beta-tubulin adduct formation measured by Western blot-based EBI competition assay; assay type: cell-based
HeLa [5] = assay: Inhibition of cell migration in human HeLa cells at 5 nM incubated for 24 hrs by microscopy method relative to control; assay type: functional
HeLa [6] = assay: Inhibition of cell migration in human HeLa cells at 10 nM incubated for 24 hrs by microscopy method relative to control; assay type: functional
HeLa [7] = assay: Induction of apoptosis in human HeLa cells assessed as late apoptotic cells at 10 nM incubated for 48 hrs by Annexin V and propidium iodide Staining based assay (reference value: 1 %); assay type: functional
HeLa [8] = assay: Induction of cell cycle arrest in human HeLa cells assessed as accumulation of cells at G2/M phase at 10 nM incubated for 24 hrs by propidium iodide staining based flow cytometry analysis; assay type: functional
HeLa [9] = assay: Induction of cell cycle arrest in human HeLa cells assessed as increase in cyclin B1 level at 10 to 1000 nM measured after 24 hrs by immunoblotting assay; assay type: functional, cell-based; conditions: dose 10-1000 nM
HeLa [10] = assay: Induction of cell cycle arrest in human HeLa cells assessed as accumulation of cells at G2/M phase at 50 nM incubated for 24 hrs by propidium iodide staining based flow cytometry analysis; assay type: functional
HeLa [11] = assay: Induction of cell cycle arrest in human HeLa cells assessed as reduction in Cdc2 expression at 10 to 1000 nM measured after 24 hrs by immunoblotting assay; assay type: functional, cell-based; conditions: dose 10-1000 nM
HCT-116 = assay: Antiproliferative activity against human HCT-116 assessed as reduction in cell viability measured after 48 hrs by MTT assay; assay type: functional, cell-based; conditions: HCT-116, 48 h
HeLa [12] = assay: Induction of apoptosis in human HeLa cells assessed as viable cells at 10 nM incubated for 48 hrs by Annexin V and propidium iodide Staining based assay (reference value: 98.5 %); assay type: functional; conditions: read-out: Activity
HeLa [13] = assay: Induction of apoptosis in human HeLa cells assessed as reduction in Bcl-2 protein expression after 24 hrs by Western blot analysis; assay type: functional, cell-based; conditions: dose 10-1000 nM
HeLa [14] = assay: Induction of apoptosis in human HeLa cells assessed as necrotic cells at 25 nM incubated for 48 hrs by Annexin V and propidium iodide Staining based assay (reference value: 0.4%); assay type: functional
HeLa [15] = assay: Induction of apoptosis in human HeLa cells assessed as early apoptotic cells at 10 nM incubated for 48 hrs by Annexin V and propidium iodide Staining based assay (reference value: 0.2%); assay type: functional
HeLa [16] = assay: Induction of apoptosis in human HeLa cells assessed as necrotic cells at 50 nM incubated for 48 hrs by Annexin V and propidium iodide Staining based assay (reference value: 0.4%); assay type: functional
[17] = Metabolic stability in human liver microsomes assessed as parent compound remaining measured immediately after compound addition; assay type: ADME, Microsome; conditions: read-out: Stability
HeLa [18] = assay: Induction of cell cycle arrest in human HeLa cells assessed as reduction in Cdc25c expression at 10 to 1000 nM measured after 24 hrs by immunoblotting assay; assay type: functional, cell-based; conditions: dose 10-1000 nM
HeLa [19] = assay: Induction of apoptosis in human HeLa cells assessed as increase in cleaved-PARP 1 protein expression after 24 hrs by Western blot analysis; assay type: functional, cell-based; conditions: dose 10-1000 nM
HeLa [20] = assay: Induction of apoptosis in human HeLa cells assessed as late apoptotic cells at 25 nM incubated for 48 hrs by Annexin V and propidium iodide Staining based assay (reference value: 1 %); assay type: functional
MCF7 = assay: Antiproliferative activity against human MCF7 assessed as reduction in cell viability measured after 48 hrs by MTT assay; assay type: functional, cell-based; conditions: MCF7, 48 h
HeLa [21] = assay: Induction of apoptosis in human HeLa cells assessed as late apoptotic cells at 50 nM incubated for 48 hrs by Annexin V and propidium iodide Staining based assay (reference value: 1 %); assay type: functional
HeLa [22] = assay: Induction of apoptosis in human HeLa cells assessed as viable cells at 25 nM incubated for 48 hrs by Annexin V and propidium iodide Staining based assay (reference value: 98.5 %); assay type: functional; conditions: read-out: Activity
[23] = Metabolic stability in human liver microsomes assessed as half life; assay type: ADME, Microsome
[24] = Metabolic stability in human liver microsomes assessed as parent compound remaining after 30 mins; assay type: ADME, Microsome; conditions: read-out: Stability
HeLa [25] = assay: Induction of apoptosis in human HeLa cells assessed as early apoptotic cells at 25 nM incubated for 48 hrs by Annexin V and propidium iodide Staining based assay (reference value: 0.2%); assay type: functional
Tubulin (Homo sapiens) = Tubulin (Homo sapiens) (UniProt P68371+Q9H4B7+P0DPH7+P68366+Q13509+Q71U36+P04350+Q3ZCM7+P07437+P68363+Q9BQE3+Q6PEY2+Q13885+Q9BVA1+Q9BUF5); assay: Induction of microtubule disruption in human Hela cells assessed as fragmented and disassembled microtubule network in cytosol at 10 to 50 nM incubated for 24 hrs by AlexaFluor 488 dye/DAPI staining based immunofluorescence assay; assay type: cell-based; conditions: dose 10-50 nM
[26] = Metabolic stability in human liver microsomes assessed as parent compound remaining after 60 mins; assay type: ADME, Microsome; conditions: read-out: Stability
HeLa [27] = assay: Inhibition of cell migration in human HeLa cells at 25 nM incubated for 24 hrs by microscopy method relative to control; assay type: functional
[28] = Metabolic stability in human liver microsomes assessed as parent compound remaining after 15 mins; assay type: ADME, Microsome; conditions: read-out: Stability
HeLa [29] = assay: Induction of apoptosis in human HeLa cells assessed as increase in bax protein expression after 24 hrs by Western blot analysis; assay type: functional, cell-based; conditions: dose 10-1000 nM
HeLa [30] = assay: Induction of apoptosis in human HeLa cells assessed as necrotic cells at 10 nM incubated for 48 hrs by Annexin V and propidium iodide Staining based assay (reference value: 0.4%); assay type: functional
HeLa [31] = assay: Induction of apoptosis in human HeLa cells assessed as early apoptotic cells at 50 nM incubated for 48 hrs by Annexin V and propidium iodide Staining based assay (reference value: 0.2%); assay type: functional
[32] = Metabolic stability in human liver microsomes assessed as parent compound remaining after 90 mins; assay type: ADME, Microsome; conditions: read-out: Stability
HeLa [33] = assay: Induction of apoptosis in human HeLa cells assessed as reduction in Bcl-xl protein expression after 24 hrs by Western blot analysis; assay type: functional, cell-based; conditions: dose 10-1000 nM
HeLa [34] = assay: Induction of apoptosis in human HeLa cells assessed as viable cells at 50 nM incubated for 48 hrs by Annexin V and propidium iodide Staining based assay (reference value: 98.5 %); assay type: functional; conditions: read-out: Activity

## COc1cc(-c2nnc3c(OC)cc(-c4ccc5c(ccn5C)c4)cn23)cc(OC)c1OC
HeLa [1]
  Activity: Dose-dependent effect
A549
  IC50: 69 nM
HeLa [2]
  Activity: Dose-dependent effect
HeLa [3]
  IC50: 15 nM
Tubulin
  IC50: 1640 nM
HeLa [4]
  Activity: 17.4%
Tubulin beta
  IC50: Dose-dependent effect
HeLa [5]
  inhibition at 0.005 µM: 22.1%
HeLa [6]
  inhibition at 0.01 µM: 32.2%
HeLa [7]
  Activity: 48.8%
HeLa [8]
  Activity: 37.7%
HeLa [9]
  Activity: Active
HeLa [10]
  Activity: 77%
HeLa [11]
  Activity: Active
HCT-116
  IC50: 33 nM
HeLa [12]
  viability at 0.01 µM: 41.8%
HeLa [13]
  Activity: Dose-dependent effect
HeLa [14]
  Activity: 3.6%
HeLa [15]
  Activity: 7.1%
HeLa [16]
  Activity: 2.6%
[17]
  remaining at 0 min: 100%
HeLa [18]
  Activity: Active
HeLa [19]
  Activity: Dose-dependent effect
HeLa [20]
  Activity: 54%
MCF7
  IC50: 49 nM
HeLa [21]
  Activity: 65.7%
HeLa [22]
  viability at 0.025 µM: 31.2%
[23]
  half-life: 51.7 min
[24]
  remaining at 0.5 h: 55.5%
HeLa [25]
  Activity: 11.1%
Tubulin (Homo sapiens)
  Activity: Active
[26]
  remaining at 1 h: 37.5%
HeLa [27]
  inhibition at 0.025 µM: 44.3%
[28]
  remaining at 0.25 h: 75.9%
HeLa [29]
  Activity: Dose-dependent effect
HeLa [30]
  Activity: 2.4%
HeLa [31]
  Activity: 27.6%
[32]
  remaining at 1.5 h: 30.1%
HeLa [33]
  Activity: Dose-dependent effect
HeLa [34]
  viability at 0.05 µM: 4.2%

— ChEMBL document CHEMBL5055630, “Design, synthesis and biological evaluation of indole-based [1,2,4]triazolo[4,3-a] pyridine derivatives as novel microtubule polymerization inhibitors” (Eur J Med Chem, 2021)
